From patent US8952024B2, “Herbicidal pyrimidone derivatives” (E I du Pont de Nemours and Company, priority 2009, dated 2015)

Key:
Assay type in all cases: in vivo
[1] = tested on: barnyardgrass (Echinochloa crus-galli); assay: Test A pre-/postemergence plant response
Outline: (§1)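 Each species was treated preemergence via directed soil spray and postemergence at the one- to two-leaf stage, with compounds formulated in a non-phytotoxic solvent plus surfactant. Visual injury relative to untreated controls was rated after about ten days on a 0–100 scale.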

[2] = tested on: corn (Zea mays); assay: Test A pre-/postemergence plant response
Outline: as §1

[3] = tested on: giant foxtail (Setaria faberii); assay: Test A pre-/postemergence plant response
Outline: as §1

[4] = tested on: large crabgrass (Digitaria sanguinalis); assay: Test A pre-/postemergence plant response
Outline: as §1

[5] = tested on: morningglory (Ipomoea spp.); assay: Test A pre-/postemergence plant response
Outline: as §1

[6] = tested on: pigweed (Amaranthus retroflexus); assay: Test A pre-/postemergence plant response
Outline: as §1

[7] = tested on: velvetleaf (Abutilon theophrasti); assay: Test A pre-/postemergence plant response
Outline: as §1

[8] = tested on: wheat (Triticum aestivum); assay: Test A pre-/postemergence plant response
Outline: as §1

[9] = tested on: windgrass (Apera spica-venti); assay: Test B postemergence plant response; conditions: for Windgrass plant response rating (0 to 100 scale): 62 g ai/ha, 0 is no effect, 13 to 15 days
Outline: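 Plants grown in peat/vermiculite medium were sprayed postemergence at 2–18 cm height (1- to 4-leaf stage). After 13–15 days in the greenhouse, response was rated visually against untreated controls on a 0–100 scale (0 no effect, 100 complete control).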

[10] = tested on: barnyardgrass (Echinochloa crus-galli); assay: Test B flooded paddy test; conditions: for Plant response rating, Flood, Barnyardgrass: 250 g ai/ha, flooded paddy test, visual rating on 0 to 100 scale (0 no effect, 100 complete control) after 13 to 15 days; for Plant response rating, Barnyardgrass: Flood (flooded paddy test), 13 to 15 days; for Barnyardgrass plant response rating: Flood, 31 g ai/ha, scale 0 to 100 (0 no effect, 100 complete control)
Outline: (§2)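 2-leaf seedlings; pots flooded 3 cm over soil at treatment; cpd dosed into floodwater, depth kept constant. Greenhouse 13–15 d. Visual rating vs untreated controls, 0 = no effect, 100 = complete control.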

[11] = tested on: ducksalad (Heteranthera limosa); assay: Test B flooded paddy test; conditions: for Plant response rating, Flood, Ducksalad: 250 g ai/ha, flooded paddy test, visual rating on 0 to 100 scale (0 no effect, 100 complete control) after 13 to 15 days; for Plant response rating, Ducksalad: Flood (flooded paddy test), 13 to 15 days; for Ducksalad plant response rating: Flood, 31 g ai/ha, scale 0 to 100 (0 no effect, 100 complete control)
Outline: as §2

[12] = tested on: rice (Oryza sativa); assay: Test B flooded paddy test; conditions: for Plant response rating, Flood, Rice: 250 g ai/ha, flooded paddy test, visual rating on 0 to 100 scale (0 no effect, 100 complete control) after 13 to 15 days; for Plant response rating, Rice: Flood (flooded paddy test), 13 to 15 days; for Rice plant response rating: Flood, 31 g ai/ha, scale 0 to 100 (0 no effect, 100 complete control)
Outline: as §2

[13] = tested on: umbrella sedge (Cyperus difformis); assay: Test B flooded paddy test; conditions: for Plant response rating, Flood, Sedge, Umbrella: 250 g ai/ha, flooded paddy test, visual rating on 0 to 100 scale (0 no effect, 100 complete control) after 13 to 15 days; for Plant response rating, Sedge, Umbrella: Flood (flooded paddy test), 13 to 15 days; for Sedge, Umbrella plant response rating: Flood, 31 g ai/ha, scale 0 to 100 (0 no effect, 100 complete control)
Outline: as §2

[14] = Postemergence, 125 g ai/ha, 0 to 100 scale where 0 is no effect and 100 is complete control
[15] = Postemergence, 500 g ai/ha, 0 to 100 scale, 0 = no effect, 100 = complete control, approx. ten days
[16] = Preemergence, 125 g ai/ha, 0 to 100 scale, 0 = no effect, 100 = complete control
[17] = Preemergence, 500 g ai/ha, visual injury, 0 to 100 scale (0 no effect, 100 complete control), approx. ten days
[18] = 31 g ai/ha, postemergence, scale 0 to 100, 0 is no effect, 100 is complete control
[19] = postemergence, 100 is complete control
[20] = Postemergence, 250 g ai/ha, scale 0 to 100 (0 no effect, 100 complete control)
[21] = 62 g ai/ha, scale of 0 to 100 where 0 is no effect and 100 is complete control
[22] = 125 g ai/ha, scale 0 to 100, 0 is no effect, 100 is complete control

SMILES: CCCCCCn1c(-c2ccccc2)ncc(C(=O)C2=C(O)CCCC2=O)c1=O [Compound 94]
- Plant response rating, Barnyardgrass [1, 14]: 90
- Plant response rating, Barnyardgrass [1, 15]: 90
- Plant response rating, Barnyardgrass [1, 16]: 0
- Plant response rating, Barnyardgrass [1, 17]: 30
- Plant response rating, Corn [2, 14]: 0
- Plant response rating, Corn [2, 15]: 10
- Plant response rating, Corn [2, 16]: 0
- Plant response rating, Corn [2, 17]: 0
- Plant response rating, Foxtail, Giant [3, 14]: 30
- Plant response rating, Foxtail, Giant [3, 15]: 80
- Plant response rating, Foxtail, Giant [3, 16]: 0
- Plant response rating, Foxtail, Giant [3, 17]: 40
- Plant response rating, Crabgrass, Large [4, 14]: 80
- Plant response rating, Crabgrass, Large [4, 15]: 90
- Plant response rating, Crabgrass, Large [4, 16]: 30
- Plant response rating, Crabgrass, Large [4, 17]: 90
- Plant response rating, Morningglory [5, 14]: 100
- Plant response rating, Morningglory [5, 15]: 100
- Plant response rating, Morningglory [5, 16]: 10
- Plant response rating, Morningglory [5, 17]: 40
- Plant response rating, Pigweed [6, 14]: 100
- Plant response rating, Pigweed [6, 15]: 100
- Plant response rating, Pigweed [6, 16]: 70
- Plant response rating, Pigweed [6, 17]: 100
- Plant response rating, Velvetleaf [7, 14]: 100
- Plant response rating, Velvetleaf [7, 15]: 100
- Plant response rating, Velvetleaf [7, 16]: 40
- Plant response rating, Velvetleaf [7, 17]: 70
- Plant response rating, Wheat [8, 14]: 0
- Plant response rating, Wheat [8, 15]: 0
- Plant response rating, Wheat [8, 16]: 0
- Plant response rating, Wheat [8, 17]: 0
- Plant response rating, Windgrass [9, 18]: 0
- Windgrass plant response rating (0 to 100 scale) [9, 19]: 40
- Plant response rating, Windgrass [9, 20]: 50
- Plant response rating, Flood, Barnyardgrass [10]: 60
- Plant response rating, Barnyardgrass [10, 21]: 0
- Plant response rating, Barnyardgrass [10, 22]: 40
- Barnyardgrass plant response rating [10]: 0
- Plant response rating, Flood, Ducksalad [11]: 30
- Plant response rating, Ducksalad [11, 21]: 20
- Plant response rating, Ducksalad [11, 22]: 25
- Ducksalad plant response rating [11]: 0
- Plant response rating, Flood, Rice [12]: 35
- Plant response rating, Rice [12, 21]: 0
- Plant response rating, Rice [12, 22]: 20
- Rice plant response rating [12]: 0
- Plant response rating, Flood, Sedge, Umbrella [13]: 85
- Plant response rating, Sedge, Umbrella [13, 21]: 70
- Plant response rating, Sedge, Umbrella [13, 22]: 85
- Sedge, Umbrella plant response rating [13]: 20

SMILES: CCOCCn1c(-c2ccccc2)ncc(C(=O)C2=C(O)CCCC2=O)c1=O [Compound 96]
- Plant response rating, Barnyardgrass [1, 14]: 90
- Plant response rating, Barnyardgrass [1, 15]: 90
- Plant response rating, Barnyardgrass [1, 16]: 90
- Plant response rating, Barnyardgrass [1, 17]: 100
- Plant response rating, Corn [2, 14]: 0
- Plant response rating, Corn [2, 15]: 20
- Plant response rating, Corn [2, 16]: 0
- Plant response rating, Corn [2, 17]: 10
- Plant response rating, Foxtail, Giant [3, 14]: 70
- Plant response rating, Foxtail, Giant [3, 15]: 90
- Plant response rating, Foxtail, Giant [3, 16]: 50
- Plant response rating, Foxtail, Giant [3, 17]: 80
- Plant response rating, Crabgrass, Large [4, 14]: 90
- Plant response rating, Crabgrass, Large [4, 15]: 100
- Plant response rating, Crabgrass, Large [4, 16]: 100
- Plant response rating, Crabgrass, Large [4, 17]: 100
- Plant response rating, Morningglory [5, 14]: 100
- Plant response rating, Morningglory [5, 15]: 100
- Plant response rating, Morningglory [5, 16]: 80
- Plant response rating, Morningglory [5, 17]: 80
- Plant response rating, Pigweed [6, 14]: 100
- Plant response rating, Pigweed [6, 15]: 100
- Plant response rating, Pigweed [6, 16]: 100
- Plant response rating, Pigweed [6, 17]: 100
- Plant response rating, Velvetleaf [7, 14]: 100
- Plant response rating, Velvetleaf [7, 15]: 100
- Plant response rating, Velvetleaf [7, 16]: 100
- Plant response rating, Velvetleaf [7, 17]: 100
- Plant response rating, Wheat [8, 14]: 0
- Plant response rating, Wheat [8, 15]: 20
- Plant response rating, Wheat [8, 16]: 0
- Plant response rating, Wheat [8, 17]: 0
- Plant response rating, Windgrass [9, 18]: 5
- Windgrass plant response rating (0 to 100 scale) [9, 19]: 10
- Plant response rating, Windgrass [9, 20]: 45
- Plant response rating, Flood, Barnyardgrass [10]: 85
- Plant response rating, Barnyardgrass [10, 21]: 65
- Plant response rating, Barnyardgrass [10, 22]: 80
- Barnyardgrass plant response rating [10]: 60
- Plant response rating, Flood, Ducksalad [11]: 75
- Plant response rating, Ducksalad [11, 21]: 0
- Plant response rating, Ducksalad [11, 22]: 50
- Ducksalad plant response rating [11]: 0
- Plant response rating, Flood, Rice [12]: 15
- Plant response rating, Rice [12, 21]: 15
- Plant response rating, Rice [12, 22]: 15
- Rice plant response rating [12]: 10
- Plant response rating, Flood, Sedge, Umbrella [13]: 90
- Plant response rating, Sedge, Umbrella [13, 21]: 75
- Plant response rating, Sedge, Umbrella [13, 22]: 85
- Sedge, Umbrella plant response rating [13]: 50
